The record followed here is US10208019B2, “GLP-1 receptor agonists and uses thereof” (Pfizer Inc., priority 2016, dated 2019).

The target of assay [1] is human GLP-1R (Homo sapiens (Human), UniProt P43220, L260F). In words: CHO GLP-1R Clone C6—Assay 2: HTRF cAMP cell-based functional agonist assay (low GLP-1R density). The settings on record: for EC50: CHO GLP-1R Clone C6, cAMP HTRF, geometric mean; for Emax: read-out: Assay 2 Emax (%). In general terms: TR-FRET usually uses a lanthanide donor and a delayed reading to cut background.

For assay [2], the target named is human GLP-1R (Homo sapiens, UniProt P43220, G168S). Kind of assay: CHO GLP-1R Clone H6—Assay 1: HTRF cAMP cell-based functional agonist assay (high GLP-1R density). The settings on record: for EC50: CHO GLP-1R Clone H6, cAMP HTRF, geometric mean; for Emax: read-out: Assay 1 Emax (%), CHO GLP-1R Clone H6.
Procedure: GLP-1R-mediated agonist activity was determined with a cell-based functional assay utilizing an HTRF (Homogeneous Time-Resolved Fluorescence) cAMP detection kit (cAMP HI Range Assay Kit; CisBio cat #62AM6PEJ) that measures cAMP levels in the cell. The method is a competitive immunoassay between native cAMP produced by the cells and exogenous cAMP labeled with the dye d2. The tracer binding is visualized by a mAb anti-cAMP labeled with Cryptate. The specific signal (i.e. energy transfer) is inversely proportional to the concentration of cAMP in either standard or experimental sample.
The human GLP-1R coding sequence (NCBI Reference Sequence NP_002053.3, including naturally-occurring variant Gly168Ser) was subcloned into pcDNA3 (Invitrogen) and a cell line stably expressing the receptor was isolated (designated Clone H6).
Cells were removed from cryopreservation, re-suspended in 40 mL of Dulbecco's Phosphate Buffered Saline (DPBS-Lonza Cat #17-512Q) and centrifuged at 800×g for 5 min at 22° C. The cell pellet was then re-suspended in 10 mL of growth medium [DMEM/F12 1:1 Mixture with HEPES, L-Gln, 500 mL (DMEM/F12 Lonza Cat #12-719F), 10% heat inactivated fetal bovine serum (Gibco Cat #16140-071), 5 mL of 100× Pen-Strep (Gibco Cat #15140-122), 5 mL of 100× L-Glutamine (Gibco Cat #25030-081) and 500 μg/mL Geneticin (G418) (Invitrogen #10131035)]. A 1 mL sample of the cell suspension in growth media was counted on a Becton Dickinson ViCell to determine cell viability and cell count per mL. The remaining cell suspension was then adjusted with growth media to deliver 2000 viable cells per well using a Matrix Combi Multidrop reagent dispenser, and the cells were dispensed into a white 384 well tissue culture treated assay plate (Corning 3570). The assay plate was then incubated for 48 hours at 37° C. in a humidified environment in 5% carbon dioxide.
Varying concentrations of each compound to be tested (in DMSO) were diluted in assay buffer (HBSS with Calcium/Magnesium (Lonza/BioWhittaker cat #10-527F)/0.1% BSA (Sigma Aldrich cat #A7409-1L)/20 mM HEPES (Lonza/BioWhiftaker cat #17-737E) containing 100 μM 3-isobutyl-1-methylxanthin (IBMX; Sigma cat #15879). The final DMSO concentration is 1%.
After 48 hours, the growth media was removed from the assay plate wells, and the cells were treated with 20 μL of the serially diluted compound in assay buffer for 30 minutes at 37° C. in a humidified environment in 5% carbon dioxide. Following the 30 minute incubation, 10 μL of labeled d2 cAMP and 10 μL of anti-cAMP antibody (both diluted 1:20 in cell lysis buffer; as described in the manufacturer's assay protocol) were added to each well of the assay plate. The plates were then incubated at room temperature and after 60 minutes, changes in the HTRF signal were read with an Envision 2104 multi-label plate reader using excitation of 330 nm and emissions of 615 and 665 nm. Raw data were converted to nM cAMP by interpolation from a cAMP standard curve (as described in the manufacturer's assay protocol) and the percent effect was determined relative to a saturating concentration of the full agonist GLP-17-36 (1 μM) included on each plate. EC50 determinations were made from agonist dose-response curves analyzed with a curve fitting program using a 4-parameter logistic dose response equation.
Where [3] appears, read: CHO GLP-1R Clone C6, relative to saturating concentration of full agonist GLP-1 (1 μM), arithmetic mean.
The mark [4] stands for this setting: relative to saturating concentration of full agonist GLP-1 (1 μM), arithmetic mean.

Read-outs that look alike come from different tables or passages of the source.

human GLP-1R (Homo sapiens (Human), UniProt P43220, L260F), sequence (P43220 24-463 L260F): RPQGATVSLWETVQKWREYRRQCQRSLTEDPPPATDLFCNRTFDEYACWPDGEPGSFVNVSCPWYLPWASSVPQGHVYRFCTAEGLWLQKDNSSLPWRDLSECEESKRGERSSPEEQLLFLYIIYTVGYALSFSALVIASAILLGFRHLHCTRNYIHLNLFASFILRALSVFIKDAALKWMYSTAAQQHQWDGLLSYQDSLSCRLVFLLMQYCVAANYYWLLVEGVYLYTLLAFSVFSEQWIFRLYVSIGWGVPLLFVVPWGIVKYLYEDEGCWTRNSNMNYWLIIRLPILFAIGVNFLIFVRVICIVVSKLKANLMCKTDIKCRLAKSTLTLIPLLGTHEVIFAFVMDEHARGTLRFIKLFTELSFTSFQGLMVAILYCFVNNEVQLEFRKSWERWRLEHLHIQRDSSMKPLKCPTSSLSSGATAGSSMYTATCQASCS
human GLP-1R (Homo sapiens, UniProt P43220, G168S), sequence (P43220 24-463 G168S limits assumed): as the sequence (P43220 24-463 L260F) above, with G145S, F237L counted along it

By EC50 is commonly meant the concentration needed to bring the measured effect to its halfway point. In the case of `COCCn1c(CN2CC[C@@H](c3cccc(OCc4ccc(Cl)cc4F)n3)[C@H](F)C2)nc2ccc(C(=O)O)cc21` (racemic) [Example 1A-22, rac 2-{[(3S,4S)-4-{6-[(4-chloro-2-fluorobenzyl)oxy]pyridin-2-yl}-3-fluoropiperidin-1-yl]methyl}-1-(2-methoxyethyl)-1H-benzimidazole-6-carboxylic acid], the EC50 at human GLP-1R [1] was 400 nM; on human GLP-1R [2] (read-out: Assay 1 EC50), 36 nM. Also, the “Assay 2 Emax (%)” value on human GLP-1R [1] (setting [3]) is on record as 86%. The “Assay 1 Emax (%)” value at human GLP-1R [2] (CHO GLP-1R Clone H6, relative to saturating concentration of full agonist GLP-1 (1 μM), arithmetic mean) stood at 78%.

A word on the Emax: it is the maximal effect, on the per cent scale that the assay sets. For the molecule `COCCn1c(CN2CC[C@@H](c3cccc(OCc4ccc(Cl)cc4F)n3)[C@H](O)C2)nc2ccc(C(=O)O)cc21` (racemic) [Example 1A-23, rac-2-{[(3S,4S)-4-{6-[(4-chloro-2-fluorobenzyl)oxy]pyridin-2-yl}-3-hydroxypiperidin-1-yl]methyl}-1-(2-methoxyethyl)-1H-benzimidazole-6-carboxylic acid], the half-maximal effective concentration (EC50) came out at 1000 nM at human GLP-1R [1] and 50 nM on human GLP-1R [2] (Assay 1 EC50 (nM)). For the same molecule, the Emax at human GLP-1R [1] (setting [3]) came to 98%; at human GLP-1R [2] (setting [4]), 83%.

`COCCn1c(CN2CC[C@@H](c3cccc(OCc4ccc(Cl)cc4F)n3)[C@@H](C)C2)nc2ccc(C(=O)O)cc21` (racemic) [Example 1A-25, rac-2-{[(3R,4R)-4-{6-[(4-chloro-2-fluorobenzyl)oxy]pyridin-2-yl}-3-methylpiperidin-1-yl]methyl}-1-(2-methoxyethyl)-1H-benzimidazole-6-carboxylic acid]: the EC50 was 1000 nM on human GLP-1R [1] and 45 nM on human GLP-1R [2] (Assay 1 EC50 (nM)). The Emax at human GLP-1R [1] (setting [3]) stood at 84%; on human GLP-1R [2] (setting [4]), 65%.

Regarding `Cc1nc(Cn2c(CN3CCC(c4cccc(OCc5ccc(Cl)cc5F)n4)CC3)nc3ccc(C(=O)O)cc32)c(C)o1` [Example 11A-55, 2-[(4-{6-[(4-chloro-2-fluorobenzyl)oxy]pyridin-2-yl}piperidin-1-yl)methyl]-1-[(2,5-dimethyl-1,3-oxazol-4-yl)methyl]-1H-benzimidazole-6-carboxylic acid], at human GLP-1R [2] (read-out: Assay 1 EC50), the EC50 is 520 nM. Moreover, the Emax at human GLP-1R [2] (setting [4]) turned out to be 80%.

Take `COC1CCN(CCn2c(CN3CCC(c4cccc(OCc5ccc(Cl)cc5F)n4)CC3)nc3ccc(C(=O)O)cc32)CC1` [Example 11A-56, 2-[(4-{6-[(4-chloro-2-fluorobenzyl)oxy]pyridin-2-yl}piperidin-1-yl)methyl]-1-[2-(4-methoxypiperidin-1-yl)ethyl]-1H-benzimidazole-6-carboxylic acid]: the EC50 at human GLP-1R [2] (read-out: Assay 1 EC50) was determined as 1100 nM. In addition, the Emax at human GLP-1R [2] (setting [4]) is 47%.

Take `Cc1cc(C)n(CCn2c(CN3CCC(c4cccc(OCc5ccc(Cl)cc5F)n4)CC3)nc3ccc(C(=O)O)cc32)n1` [Example 11A-57, 2-[(4-{6-[(4-chloro-2-fluorobenzyl)oxy]pyridin-2-yl}piperidin-1-yl)methyl]-1-[2-(3,5-dimethyl-1H-pyrazol-1-yl)ethyl]-1H-benzimidazole-6-carboxylic acid]: the 50% effective concentration (EC50) at human GLP-1R [2] (read-out: Assay 1 EC50) was 1100 nM. Also, the Emax at human GLP-1R [2] (setting [4]) was 65%.

For `Cc1cc(Cn2c(CN3CCC(c4cccc(OCc5ccc(Cl)cc5F)n4)CC3)nc3ccc(C(=O)O)cc32)[nH]n1` [Example 11A-58, 2-[(4-{6-[(4-chloro-2-fluorobenzyl)oxy]pyridin-2-yl}piperidin-1-yl)methyl]-1-[(3-methyl-1H-pyrazol-5-yl)methyl]-1H-benzimidazole-6-carboxylic acid], the EC50 on human GLP-1R [2] (read-out: Assay 1 EC50) came to 1100 nM. The maximal response (Emax) on human GLP-1R [2] (setting [4]) turned out to be 81%.

With `Cc1n[nH]c(Cn2c(CN3CCC(c4cccc(OCc5ccc(Cl)cc5F)n4)CC3)nc3ccc(C(=O)O)cc32)n1` [Example 11A-59, 2-[(4-{6-[(4-chloro-2-fluorobenzyl)oxy]pyridin-2-yl}piperidin-1-yl)methyl]-1-[(3-methyl-1H-1,2,4-triazol-5-yl)methyl]-1H-benzimidazole-6-carboxylic acid], at human GLP-1R [2] (read-out: Assay 1 EC50), the EC50 was 1400 nM. The maximal response (Emax) at human GLP-1R [2] (setting [4]) is 97%.

In the case of `CC(c1cnn(C)n1)n1c(CN2CCC(c3cccc(OCc4ccc(Cl)cc4F)n3)CC2)nc2ccc(C(=O)O)cc21` (stereo not drawn) [Example 11A-60, 2-[(4-{6-[(4-chloro-2-fluorobenzyl)oxy]pyridin-2-yl}piperidin-1-yl)methyl]-1-[1-(2-methyl-2H-1,2,3-triazol-4-yl)ethyl]-1H-benzimidazole-6-carboxylic acid], the EC50 at human GLP-1R [2] (read-out: Assay 1 EC50) was determined as 1600 nM. Moreover, at human GLP-1R [2] (setting [4]), the Emax amounted to 80%.

Consider `Cc1ccc(Cn2c(CN3CCC(c4cccc(OCc5ccc(Cl)cc5F)n4)CC3)nc3ccc(C(=O)O)cc32)cn1` [Example 11A-61, 2-[(4-{6-[(4-chloro-2-fluorobenzyl)oxy]pyridin-2-yl}piperidin-1-yl)methyl]-1-[(6-methylpyridin-3-yl)methyl]-1H-benzimidazole-6-carboxylic acid], for which the EC50 at human GLP-1R [2] (read-out: Assay 1 EC50) stood at 1900 nM. In addition, the Emax on human GLP-1R [2] (setting [4]) amounted to 79%.

For `COCc1cc(Cn2c(CN3CCC(c4cccc(OCc5ccc(Cl)cc5F)n4)CC3)nc3ccc(C(=O)O)cc32)[nH]n1` [Example 11A-62, 2-[(4-{6-[(4-chloro-2-fluorobenzyl)oxy]pyridin-2-yl}piperidin-1-yl)methyl]-1-{[3-(methoxymethyl)-1H-pyrazol-5-yl]methyl}-1H-benzimidazole-6-carboxylic acid], the EC50 on human GLP-1R [2] (read-out: Assay 1 EC50) amounted to 2200 nM. On human GLP-1R [2] (setting [4]), the Emax came to 87%.

With `CN1CCOC(Cn2c(CN3CCC(c4cccc(OCc5ccc(Cl)cc5F)n4)CC3)nc3ccc(C(=O)O)cc32)C1` (stereo not drawn) [Example 11A-63, 2-[(4-{6-[(4-chloro-2-fluorobenzyl)oxy]pyridin-2-yl}piperidin-1-yl)methyl]-1-[(4-methylmorpholin-2-yl)methyl]-1H-benzimidazole-6-carboxylic acid], the EC50 at human GLP-1R [2] (read-out: Assay 1 EC50) is 2500 nM. Further, the Emax on human GLP-1R [2] (setting [4]) came to 71%.

Turning to `O=C(O)c1ccc2nc(CN3CCC(c4cccc(OCc5ccc(Cl)cc5F)n4)CC3)n(Cc3n[nH]c(C4CC4)n3)c2c1` [Example 11A-64, 2-[(4-{6-[(4-chloro-2-fluorobenzyl)oxy]pyridin-2-yl}piperidin-1-yl)methyl]-1-[(5-cyclopropyl-1H-1,2,4-triazol-3-yl)methyl]-1H-benzimidazole-6-carboxylic acid], on human GLP-1R [2] (read-out: Assay 1 EC50), the EC50 worked out at 2900 nM. Also, the Emax at human GLP-1R [2] (setting [4]) is 88%.

`O=C(O)c1ccc2nc(CN3CCC(c4cccc(OCc5ccc(Cl)cc5F)n4)CC3)n(CCC3CCOCC3)c2c1` [Example 11A-65, 2-[(4-{6-[(4-chloro-2-fluorobenzyl)oxy]pyridin-2-yl}piperidin-1-yl)methyl]-1-[2-(tetrahydro-2H-pyran-4-yl)ethyl]-1H-benzimidazole-6-carboxylic acid]: at human GLP-1R [2] (read-out: Assay 1 EC50), the EC50 came out at 3100 nM. Besides, on human GLP-1R [2] (setting [4]), the Emax amounted to 51%.

In the case of `Cc1n[nH]c(CCn2c(CN3CCC(c4cccc(OCc5ccc(Cl)cc5F)n4)CC3)nc3ccc(C(=O)O)cc32)n1` [Example 11A-66, 2-[(4-{6-[(4-chloro-2-fluorobenzyl)oxy]pyridin-2-yl}piperidin-1-yl)methyl]-1-[2-(3-methyl-1H-1,2,4-triazol-5-yl)ethyl]-1H-benzimidazole-6-carboxylic acid], the EC50 on human GLP-1R [2] (read-out: Assay 1 EC50) stood at 4000 nM. In addition, the Emax at human GLP-1R [2] (setting [4]) amounted to 91%.

Turning to `Cc1nc(C(C)n2c(CN3CCC(c4cccc(OCc5ccc(Cl)cc5F)n4)CC3)nc3ccc(C(=O)O)cc32)n[nH]1` (stereo not drawn) [Example 11A-67, 2-[(4-{6-[(4-chloro-2-fluorobenzyl)oxy]pyridin-2-yl}piperidin-1-yl)methyl]-1-[1-(5-methyl-1H-1,2,4-triazol-3-yl)ethyl]-1H-benzimidazole-6-carboxylic acid], the EC50 at human GLP-1R [2] (read-out: Assay 1 EC50) worked out at 9300 nM. Further, the Emax at human GLP-1R [2] (setting [4]) amounted to 100%.

Take `COCC1(Cn2c(CN3CCC(c4cccc(OCc5ccc(Cl)cc5F)n4)CC3)nc3ccc(C(=O)O)cc32)CCC1` [Example 11A-74, 2-[(4-{6-[(4-chloro-2-fluorobenzyl)oxy]pyridin-2-yl}piperidin-1-yl)methyl]-1-{[1-(methoxymethyl)cyclobutyl]methyl}-1H-benzimidazole-6-carboxylic acid]: the EC50 on human GLP-1R [2] (read-out: Assay 1 EC50) worked out at 560 nM. Also, the Emax at human GLP-1R [2] (setting [4]) is 72%.

With `COCCn1c(CN2CCN(c3cccc(OCc4ccc(Cl)cc4F)n3)CC23CC3)nc2ccc(C(=O)O)cc21` [Example 12A-03, 2-[(7-{6-[(4-chloro-2-fluorobenzyl)oxy]pyridin-2-yl}-4,7-diazaspiro[2.5]oct-4-yl)methyl]-1-(2-methoxyethyl)-1H-benzimidazole-6-carboxylic acid], the EC50 on human GLP-1R [2] (read-out: Assay 1 EC50) came to 600 nM. Moreover, at human GLP-1R [2] (setting [4]), the Emax came to 70%.

With `COCCn1c(CN2CCN(c3cccc(OCc4ccc(Cl)cc4F)n3)C[C@@H]2C2CC2)nc2ccc(C(=O)O)cc21` [Example 12A-04, 2-{[(2S)-4-{6-[(4-chloro-2-fluorobenzyl)oxy]pyridin-2-yl}-2-cyclopropylpiperazin-1-yl]methyl}-1-(2-methoxyethyl)-1H-benzimidazole-6-carboxylic acid], the EC50 at human GLP-1R [2] (read-out: Assay 1 EC50) is 250 nM. At human GLP-1R [2] (setting [4]), the Emax amounted to 64%.

For `COCCn1c(CN2CCN(c3cccc(OCc4ccc(Cl)cc4F)n3)C[C@@H]2C(C)C)nc2ccc(C(=O)O)cc21` [Example 12A-05, 2-{[(2S)-4-{6-[(4-chloro-2-fluorobenzyl)oxy]pyridin-2-yl}-2-(propan-2-yl)piperazin-1-yl]methyl}-1-(2-methoxyethyl)-1H-benzimidazole-6-carboxylic acid], on human GLP-1R [2] (read-out: Assay 1 EC50), the EC50 amounted to 1300 nM. At human GLP-1R [2] (setting [4]), the Emax turned out to be 42%.

In the case of `COCCn1c(CN2CCN(c3cccc(OCc4ccc(Cl)cc4F)n3)CC2(C)C)nc2ccc(C(=O)O)cc21` [Example 12A-06, 2-[(4-{6-[(4-chloro-2-fluorobenzyl)oxy]pyridin-2-yl}-2,2-dimethylpiperazin-1-yl)methyl]-1-(2-methoxyethyl)-1H-benzimidazole-6-carboxylic acid], the EC50 on human GLP-1R [2] (read-out: Assay 1 EC50) came to 510 nM. Besides, the Emax at human GLP-1R [2] (setting [4]) amounted to 64%.
